Test results: paper PMC8297402, “Trifluoromethyl-substituted 3,5-bis(arylidene)-4-piperidones as potential anti-hepatoma and anti-inflammation agents by inhibiting NF-кB activation” (Journal of Enzyme Inhibition and Medicinal Chemistry, 2021)
Like-named read-outs stand apart in the source and are kept apart here.

What was measured:
HepG2 = test: Modified MTT cytotoxicity assay, HepG2; format: cell-based, Human; conditions: for IC50: MTT, 24 h incubation, three replicates, read-out: Cytotoxicity IC50 HepG2; for SI (selectivity index) HepG2: quotient of IC50 for normal (LO2) and malignant (HepG2) cells
Description: (§1) The HepG2, SMMC-7721, and LO2 cell lines were maintained at 37 °C, 5% humidified CO2, and 95% atmosphere. Dulbecco's Modified Eagle (DMEM) medium containing 10% foetal bovine serum (FBS) was used for culturing the HepG2 cell line; meanwhile, Roswell Park Memorial Institute (RPMI) 1640 medium containing 10% FBS was used for culturing other cell lines (SMMC-7721, LO2). The HepG2, SMMC-7721 and LO2 cells were seeded in a 96-well plate in 200 μL of medium per well at a density of approximately 8 × 10^3 cells/well and cultured for 24 h, followed by incubation in an incubator of indicated compounds with successive concentrations (10, 5, 2.5, 1.25, 0.625, 0.3125 μg/mL) for 24 h. In the control group, cells were only cultured with culture media. After the media were removed, 20 μL of MTT (5 mg/mL) was added, then cells were incubated for 4 h at 37 °C. […] GraphPad Prism 5 software was used to calculate their IC50 values. Every IC50 value was the average of three replicates. Doxorubicin (DOX) and curcumin were used as positive controls.

SMMC-7721 = test: Modified MTT cytotoxicity assay, SMMC-7721; format: cell-based, Human; conditions: for IC50: MTT, 24 h incubation, three replicates; for SI (selectivity index) SMMC-7721: quotient of IC50 for normal (LO2) and malignant (SMMC-7721) cells
Description: as §1

[1] = Modified MTT cytotoxicity assay, normal heptical cell line LO2; format: cell-based, human; conditions: human, LO2 cells (normal hepatic cell line), 24 h incubation
Description: as §1

RAW264.7 cell = test: MTT toxicity pre-experiment on RAW264.7 macrophagocyte; format: cell-based, mouse; conditions: for viability at 5 µM: Mus musculus, RAW264.7, BAPs 5 μM, read-out: Survival rate RAW264.7 cell; for Survival rate RAW264.7 cell: BAPs 5 μM
Description: Lipopolysaccharide (LPS) is a key constituent of Gram-negative bacterial endotoxin, which is used to induce an inflammatory response in corresponding inflammatory cells. TNF-α and IL-6 are two kinds of representative pro-inflammatory factors, which produced by LPS-stimulated RAW264.7 macrophage. In our pre-experiments, the toxicity against RAW264.7 macrophagocyte for all title compounds was tested by the MTT assay, and the results were listed in Table 2. The survival rates were above 80% for all BAPs (4-30) at the concentration of 5.0 μM.

TNF-α = test: ELISA of TNF-α release in LPS-stimulated RAW264.7 cells; format: cell-based, mouse; conditions: RAW264.7, ELISA; for inhibition at 5 µM: Mus musculus, RAW264.7, BAPs (5 μM) + LPS (1 μg/mL), read-out: Inhibition rate TNF-α; for Inhibition rate TNF-α: BAPs (5 μM) + LPS (1 μg/mL)
Description: (§2) We tested by inhibiting the secretion of TNF-α and IL-6 to better evaluated the anti-inflammatory effects of BAPs. […] Under the stimulation of LPS (1.0 μg/mL) with RAW264.7 cells, the release of TNF-α and IL-6 was detected. Besides, after treated with BAPs (5.0 μM) and LPS (1.0 μg/mL), the release of TNF-α and IL-6 was measured with an ELISA kit (eBioScience, San Diego, California), respectively. In general terms, pyrrolidine dithiocarbamate (PDTC, 30 μM) or BAP (5.0 μM) was used to pretreat cells for 2 h, respectively. Then, LPS (1.0 μg/mL) was added and cells were incubated for another 22 h. Finally, the culture media were centrifuged at 1000 rpm for 10 min, and the expression levels of TNF-α and IL-6 were determined by ELISA.

IL-6 = test: ELISA of IL-6 release in LPS-stimulated RAW264.7 cells; format: cell-based, mouse; conditions: RAW264.7, ELISA; for inhibition at 5 µM: Mus musculus, RAW264.7, BAPs (5 μM) + LPS (1 μg/mL), read-out: Inhibition rate IL-6; for Inhibition rate IL-6: BAPs (5 μM) + LPS (1 μg/mL)
Description: as §2

A549 = test: Modified MTT cytotoxicity assay, A549; conditions: for SI (selectivity index) A549: quotient of IC50 for normal (HHL-5) and malignant (A549) cells
A2780 = test: Modified MTT cytotoxicity assay, A2780; conditions: for SI (selectivity index) A2780: quotient of IC50 for normal (HHL-5) and malignant (A2780) cells
Description: (§3) To further verify the anti-tumour activity, one human non-small cell lung cancer cell line (A549), one human ovarian cancer cell line (A2780), and one human normal heptical cell line (HHL-5) were screened by BAPs (4–30) using a modified MTT assay (Supporting Information). DOX and curcumin were selected as positive controls.
(§4) The optical density (OD) value of each well was measured on a
(§5) multi-well plate reader (TECAN, Mӓnnedorf, Switzerland ) at 570 nm.
(§6) Every IC 50 value was the average of three replicates.
(§7) Doxorubicin (DOX) and Curcumin were used as positive controls.

LO2 = test: Modified MTT cytotoxicity assay, normal heptical cell line LO2; format: cell-based, human; conditions: 24 h incubation
Description: as §1

HHL-5 = test: Modified MTT cytotoxicity assay, normal heptical cell line HHL-5; conditions: read-out: Cytotoxicity IC50 HHL-5; MTT, normal heptical cell line
Description: as §3, §4, §5, §6, §7

[2] = as above; conditions: human, HHL-5 cells (normal hepatic cell line)
Description: as §3, §4, §5, §6, §7

[3] = Homo sapiens, A549, read-out: Cytotoxicity IC50 A549, MTT, non-small cell lung cancer cell line
[4] = Homo sapiens, A2780, read-out: Cytotoxicity IC50 A2780, MTT, ovarian cancer cell line
[5] = read-out: Cytotoxicity IC50 A549, MTT, non-small cell lung cancer cell line
[6] = read-out: Cytotoxicity IC50 A2780, MTT, ovarian cancer cell line

Row | melting point | SMILES | IC50 (HepG2; Homo sapiens, HepG2, 24 h) | SI (selectivity index) HepG2 (HepG2) | IC50 (SMMC-7721; Homo sapiens, SMMC-7721, 24 h) | SI (selectivity index) SMMC-7721 (SMMC-7721) | IC50 at 24 h [1] | viability at 5 µM (RAW264.7 cell) | inhibition at 5 µM (TNF-α) | inhibition at 5 µM (IL-6) | IC50 (A549; [3]) | SI (selectivity index) A549 (A549) | IC50 (A2780; [4]) | SI (selectivity index) A2780 (A2780) | IC50 (HepG2) | IC50 (SMMC-7721) | IC50 (LO2) | Survival rate RAW264.7 cell (RAW264.7 cell) | IC50 (A549; [5]) | IC50 (A2780; [6]) | IC50 (HHL-5) | also measured
1 | 204 to 206 °C | O=C1/C(=C/c2ccccc2C(F)(F)F)CN(S(=O)(=O)c2ccc([N+](=O)[O-])cc2)C/C1=C\c1ccccc1C(F)(F)F [BAP 6] | 4.3 ± 0.2 µM | 3.7 | 10.4 ± 0.2 µM | 1.5 | 15.7 ± 1.3 µM | 85.7 ± 3.1% | 61 ± 2.7% | 68.2 ± 3% | 7.58 ± 1.76 µM | 1.0 | 28.8 ± 5.33 µM | 0.3 | – | – | – | – | – | – | – | –
2 | – | O=C1/C(=C/c2ccccc2C(F)(F)F)CN(S(=O)(=O)c2ccc(C(F)(F)F)cc2)C/C1=C\c1ccccc1C(F)(F)F [BAP 7] | – | 8.2 | – | 6.6 | – | – | – | – | – | 3.4 | – | 27.6 | ~2.1 µM | ~2.6 µM | 17.2 ± 0.2 µM | 87.3 ± 1.9% | 2.68 ± 0.53 µM | 0.33 ± 0.03 µM | 9.1 ± 0.2 µM | IC50 (HepG2; listed as 7): 2.1 ± 0.1 µM; IC50 (SMMC-7721; listed as 7): 2.6 ± 0.2 µM; Inhibition rate TNF-α (TNF-α; 5 µM): ca. 69.9%; Inhibition rate TNF-α (TNF-α; listed as 7, 5 µM): 69.9 ± 1.1%; Inhibition rate IL-6 (IL-6; 5 µM): ca. 71.2%; Inhibition rate IL-6 (IL-6; listed as 7, 5 µM): 71.2 ± 1.3%
3 | 197 to 199 °C | O=C1/C(=C/c2ccccc2C(F)(F)F)CN(S(=O)(=O)c2ccc(Br)cc2)C/C1=C\c1ccccc1C(F)(F)F [BAP 10] | 14.7 ± 0.1 µM | 1.2 | 4.7 ± 0.1 µM | 3.6 | 17 ± 0.4 µM | 83.8 ± 2.9% | 59.2 ± 2.8% | 67.8 ± 3.2% | 5.01 ± 0.45 µM | 2.9 | 2.34 ± 0.39 µM | 6.2 | – | – | – | – | – | – | – | IC50 [2]: 14.5 ± 0.1 µM
4 | – | CC(=O)Nc1ccc(S(=O)(=O)N2C/C(=C\c3ccccc3C(F)(F)F)C(=O)/C(=C/c3ccccc3C(F)(F)F)C2)cc1 [BAP 12] | – | 1.2 | – | 1.4 | – | – | – | – | – | 3.3 | – | 6.5 | 12.9 ± 0.1 µM | 10.9 ± 0.4 µM | 15.6 ± 1.3 µM | 86.4 ± 0.7% | 2.39 ± 0.09 µM | 1.22 ± 0.06 µM | 7.9 ± 0.2 µM | Inhibition rate TNF-α (TNF-α): 67.2 ± 2.4%; Inhibition rate IL-6 (IL-6): 62.8 ± 3.0%
5 | – | CC(=O)Nc1ccc(S(=O)(=O)N2C/C(=C\c3cccc(C(F)(F)F)c3)C(=O)/C(=C/c3cccc(C(F)(F)F)c3)C2)cc1 [BAP 21] | – | 11.1 | – | 2.8 | – | – | – | – | – | 14.3 | – | 17.6 | 1.3 ± 0.1 µM | 5.1 ± 0.1 µM | 14.4 ± 0.1 µM | 90.2 ± 3.6% | 0.21 ± 0.01 µM | 0.17 ± 0.01 µM | 3 ± 0.6 µM | Inhibition rate TNF-α (TNF-α): 78.5 ± 4.2%; Inhibition rate IL-6 (IL-6): 71.6 ± 5.3%
